# Reference: patent publication US4140785A, “N-(benzothienopyrazol)amide antirhinoviral agents” (E. I. Du Pont de Nemours and Company, priority 1978, dated 1979)
# Where two headings read alike, the source gives them in different places.
# How the values were obtained:
# Rhinovirus 998 = test: Plaque inhibition in HeLa cells, rhinovirus 998; conditions: for MIC: Enterovirus; for Plaque counts per plate: 998, untreated 190
# Rhinovirus 1425 = test: Plaque inhibition in HeLa cells, rhinovirus 1425; conditions: Enterovirus, read-out: Minimum Inhibitory Concentration (MIC)
# Rhinovirus 1492 = test: Plaque inhibition in HeLa cells, rhinovirus 1492; conditions: for MIC: Enterovirus; for Plaque counts per plate: 1492, untreated 255
# Rhinovirus 1662 = test: Plaque inhibition in HeLa cells, rhinovirus 1662; conditions: Enterovirus, read-out: Minimum Inhibitory Concentration (MIC)
# Rhinovirus 4005 = test: Plaque inhibition in HeLa cells, rhinovirus 4005; conditions: Enterovirus, read-out: Minimum Inhibitory Concentration (MIC)
# Rhinovirus 6579 = test: Plaque inhibition in HeLa cells, rhinovirus 6579; conditions: Enterovirus, read-out: Minimum Inhibitory Concentration (MIC)
# Rhinovirus type 2 = test: Plaque inhibition in HeLa cells, rhinovirus type 2; conditions: Enterovirus, read-out: Minimum Inhibitory Concentration (MIC)
# Rhinovirus type 3 = test: Plaque inhibition in HeLa cells, rhinovirus type 3; conditions: for MIC: Enterovirus; for Plaque counts per plate: type 3, untreated 170
# Rhinovirus type 5 = test: Plaque inhibition in HeLa cells, rhinovirus type 5; conditions: Enterovirus, read-out: Minimum Inhibitory Concentration (MIC)
# Rhinovirus type 1A = test: Plaque inhibition in HeLa cells, rhinovirus type 1A; conditions: for MIC: Enterovirus; for Plaque counts per plate: type 1A, untreated 211
# Rhinovirus type 1b = test: Plaque inhibition in HeLa cells, rhinovirus type 1B; conditions: Enterovirus, read-out: Minimum Inhibitory Concentration (MIC)
# Rhinovirus type 13 = test: Plaque inhibition in HeLa cells, rhinovirus type 13; conditions: Enterovirus, read-out: Minimum Inhibitory Concentration (MIC)
# Rhinovirus type 14 = test: Plaque inhibition in HeLa cells, rhinovirus type 14; conditions: for MIC: Enterovirus; for Plaque counts per plate: type 14, untreated 194
# Rhinovirus type 15 = test: Plaque inhibition in HeLa cells, rhinovirus type 15; conditions: for MIC: Enterovirus; for Plaque counts per plate: type 15, untreated 145
# Rhinovirus type 39 = test: Plaque inhibition in HeLa cells, rhinovirus type 39; conditions: for MIC: Enterovirus; for Plaque counts per plate: type 39, untreated 112
# Rhinovirus type 41 = test: Plaque inhibition in HeLa cells, rhinovirus type 41; conditions: Enterovirus, read-out: Minimum Inhibitory Concentration (MIC)
# Rhinovirus type 51 = test: Plaque inhibition in HeLa cells, rhinovirus type 51; conditions: for MIC: Enterovirus; for Plaque counts per plate: type 51, untreated 118
# rhinovirus = test: In vitro activity against rhinovirus strains (overall); type: cell-based; conditions: preferred compounds
# smallpox = conditions: cited from earlier work
# herpes simplex keratitis = conditions: topical treatment; cited from earlier work
# [1] = test system: influenza A virus strains; conditions: prophylaxis and symptomatic treatment; cited from earlier work
# [2] = read-out: Minimum Inhibitory Concentration (MIC)
structure (smiles),measurement,setting,value
Cn1nc(NC(=O)c2cccnc2)c2sc3ccccc3c21 [Example 66],MIC,Rhinovirus 998; [2],2 µg/mL
same,MIC,Rhinovirus 1425,2 µg/mL
same,MIC,Rhinovirus 1492; [2],6 µg/mL
same,MIC,Rhinovirus 1662,8 µg/mL
same,MIC,Rhinovirus 4005,2 µg/mL
same,MIC,Rhinovirus 6579,2 µg/mL
same,MIC,Rhinovirus type 2,2 µg/mL
same,MIC,Rhinovirus type 3; [2],6 µg/mL
same,MIC,Rhinovirus type 5,2 µg/mL
same,MIC,Rhinovirus type 1A; [2],5 µg/mL
same,MIC,Rhinovirus type 1b,2 µg/mL
same,MIC,Rhinovirus type 13,2 µg/mL
same,MIC,Rhinovirus type 14; [2],8 µg/mL
same,MIC,Rhinovirus type 15; [2],4 µg/mL
same,MIC,Rhinovirus type 39; [2],2 µg/mL
same,MIC,Rhinovirus type 41,2 µg/mL
same,MIC,Rhinovirus type 51; [2],6 µg/mL
"Cn1nc(NC(=O)C(C)(C)C)c2sc3ccccc3c21 [2,2-dimethyl-N-(1-methyl-1H-(1)benzothieno[3,2-c]pyrazol-3-yl)propanamide]",Level of antirhinovirus activity,rhinovirus,high level of antirhinovirus activity
"CCC(CC)C(=O)Nc1nn(C)c2c1sc1ccccc12 [Example 63, 2-ethyl-N-(1-methyl-1H-(1)benzothieno[3,2-c]pyrazol-3-yl)butanamide]",Level of antirhinovirus activity,rhinovirus,high level of antirhinovirus activity
same,MIC,Rhinovirus 998; [2],1 µg/mL
same,MIC,Rhinovirus 1425,2 µg/mL
same,MIC,Rhinovirus 1492; [2],1 µg/mL
same,MIC,Rhinovirus 1662,1 µg/mL
same,MIC,Rhinovirus 4005,2 µg/mL
same,MIC,Rhinovirus 6579,2 µg/mL
same,MIC,Rhinovirus type 2,2 µg/mL
same,MIC,Rhinovirus type 3; [2],0.5 µg/mL
same,MIC,Rhinovirus type 5,2 µg/mL
same,MIC,Rhinovirus type 1A; [2],1 µg/mL
same,MIC,Rhinovirus type 1b,2 µg/mL
same,MIC,Rhinovirus type 13,2 µg/mL
same,MIC,Rhinovirus type 14; [2],1 µg/mL
same,MIC,Rhinovirus type 15; [2],0.5 µg/mL
same,MIC,Rhinovirus type 39; [2],0.5 µg/mL
same,MIC,Rhinovirus type 41,2 µg/mL
same,MIC,Rhinovirus type 51; [2],1 µg/mL
"CC(=O)Nc1nn(C)c2c1sc1ccccc12 [Example 65, N-(1-methyl-1H-(1)benzothieno[3,2-c]pyrazol-3-yl)-acetamide]",MIC,Rhinovirus 998; [2],8 µg/mL
same,MIC,Rhinovirus 1425,2 µg/mL
same,MIC,Rhinovirus 1492; [2],8 µg/mL
same,MIC,Rhinovirus 1662,10 µg/mL
same,MIC,Rhinovirus 4005,2 µg/mL
same,MIC,Rhinovirus 6579,5 µg/mL
same,MIC,Rhinovirus type 2,4 µg/mL
same,MIC,Rhinovirus type 3; [2],4 µg/mL
same,MIC,Rhinovirus type 5,4 µg/mL
same,MIC,Rhinovirus type 1A; [2],8 µg/mL
same,MIC,Rhinovirus type 1b,6 µg/mL
same,MIC,Rhinovirus type 13,5 µg/mL
same,MIC,Rhinovirus type 14; [2],8 µg/mL
same,MIC,Rhinovirus type 15; [2],5 µg/mL
same,MIC,Rhinovirus type 39; [2],8 µg/mL
same,MIC,Rhinovirus type 41,2 µg/mL
same,MIC,Rhinovirus type 51; [2],8 µg/mL
CN1C(=O)/C(=N\NC(N)=S)c2ccccc21 [Methisazone],Effectiveness for prevention of smallpox,smallpox,effective for the prevention of smallpox
Cn1nc(NC(=O)CC2CCCC2)c2sc3ccccc3c21 [Example 62],MIC,Rhinovirus 998; [2],2 µg/mL
same,MIC,Rhinovirus 1425,2 µg/mL
same,MIC,Rhinovirus 1492; [2],2 µg/mL
same,MIC,Rhinovirus 1662,8 µg/mL
same,MIC,Rhinovirus 4005,2 µg/mL
same,MIC,Rhinovirus 6579,2 µg/mL
same,MIC,Rhinovirus type 2,2 µg/mL
same,MIC,Rhinovirus type 3; [2],4 µg/mL
same,MIC,Rhinovirus type 5,2 µg/mL
same,MIC,Rhinovirus type 1A; [2],6 µg/mL
same,MIC,Rhinovirus type 1b,2 µg/mL
same,MIC,Rhinovirus type 13,2 µg/mL
same,MIC,Rhinovirus type 14; [2],6 µg/mL
same,MIC,Rhinovirus type 15; [2],5 µg/mL
same,MIC,Rhinovirus type 39; [2],2 µg/mL
same,MIC,Rhinovirus type 41,2 µg/mL
same,MIC,Rhinovirus type 51; [2],8 µg/mL
O=c1[nH]c(=O)n([C@H]2C[C@H](O)[C@@H](CO)O2)cc1I [Idoxuridine],Effectiveness in herpes simplex keratitis,herpes simplex keratitis,effective for the topical treatment of herpes simplex keratitis
CC(C)CC(=O)Nc1nn(C)c2c1sc1ccccc12 [Example 64],MIC,Rhinovirus 998; [2],1 µg/mL
same,MIC,Rhinovirus 1425,4 µg/mL
same,MIC,Rhinovirus 1492; [2],2 µg/mL
same,MIC,Rhinovirus 1662,2 µg/mL
same,MIC,Rhinovirus 4005,2 µg/mL
same,MIC,Rhinovirus 6579,2 µg/mL
same,MIC,Rhinovirus type 2,2 µg/mL
same,MIC,Rhinovirus type 3; [2],1 µg/mL
same,MIC,Rhinovirus type 5,2 µg/mL
same,MIC,Rhinovirus type 1A; [2],1 µg/mL
same,MIC,Rhinovirus type 1b,2 µg/mL
same,MIC,Rhinovirus type 13,2 µg/mL
same,MIC,Rhinovirus type 14; [2],1 µg/mL
same,MIC,Rhinovirus type 15; [2],1 µg/mL
same,MIC,Rhinovirus type 39; [2],1 µg/mL
same,MIC,Rhinovirus type 41,2 µg/mL
same,MIC,Rhinovirus type 51; [2],2 µg/mL
CCC(CC)(CC)C(=O)Nc1nn(C)c2c1sc1ccccc12,Level of antirhinovirus activity,rhinovirus,high level of antirhinovirus activity
same,Plaque counts per plate,Rhinovirus 998; 0.1 μg/ml,103 Plaque counts per plate
same,Plaque counts per plate,Rhinovirus 998; 0.5 μg/ml,0 Plaque counts per plate
same,Plaque counts per plate,Rhinovirus 998; 1.0 μg/ml,0 Plaque counts per plate
same,Plaque counts per plate,Rhinovirus 998; 2.0 μg/ml,0 Plaque counts per plate
same,MIC,Rhinovirus 998,0.5 µg/mL
same,Plaque counts per plate,Rhinovirus 1492; 0.1 μg/ml,140 Plaque counts per plate
same,Plaque counts per plate,Rhinovirus 1492; 0.5 μg/ml,12 Plaque counts per plate
same,Plaque counts per plate,Rhinovirus 1492; 1.0 μg/ml,0 Plaque counts per plate
same,Plaque counts per plate,Rhinovirus 1492; 2.0 μg/ml,0 Plaque counts per plate
same,MIC,Rhinovirus 1492,1 µg/mL
same,Plaque counts per plate,Rhinovirus type 3; 0.1 μg/ml,119 Plaque counts per plate
same,Plaque counts per plate,Rhinovirus type 3; 0.5 μg/ml,0 Plaque counts per plate
same,Plaque counts per plate,Rhinovirus type 3; 1.0 μg/ml,0 Plaque counts per plate
same,Plaque counts per plate,Rhinovirus type 3; 2.0 μg/ml,0 Plaque counts per plate
same,MIC,Rhinovirus type 3,0.5 µg/mL
same,Plaque counts per plate,Rhinovirus type 1A; 0.1 μg/ml,153 Plaque counts per plate
same,Plaque counts per plate,Rhinovirus type 1A; 0.5 μg/ml,60 Plaque counts per plate
same,Plaque counts per plate,Rhinovirus type 1A; 1.0 μg/ml,4 Plaque counts per plate
same,Plaque counts per plate,Rhinovirus type 1A; 2.0 μg/ml,0 Plaque counts per plate
same,MIC,Rhinovirus type 1A,2 µg/mL
same,Plaque counts per plate,Rhinovirus type 14; 0.1 μg/ml,125 Plaque counts per plate
same,Plaque counts per plate,Rhinovirus type 14; 0.5 μg/ml,20 Plaque counts per plate
same,Plaque counts per plate,Rhinovirus type 14; 1.0 μg/ml,0 Plaque counts per plate
same,Plaque counts per plate,Rhinovirus type 14; 2.0 μg/ml,0 Plaque counts per plate
same,MIC,Rhinovirus type 14,1 µg/mL
same,Plaque counts per plate,Rhinovirus type 15; 0.1 μg/ml,61 Plaque counts per plate
same,Plaque counts per plate,Rhinovirus type 15; 0.5 μg/ml,0 Plaque counts per plate
same,Plaque counts per plate,Rhinovirus type 15; 1.0 μg/ml,0 Plaque counts per plate
same,Plaque counts per plate,Rhinovirus type 15; 2.0 μg/ml,0 Plaque counts per plate
same,MIC,Rhinovirus type 15,0.5 µg/mL
same,Plaque counts per plate,Rhinovirus type 39; 0.1 μg/ml,65 Plaque counts per plate
same,Plaque counts per plate,Rhinovirus type 39; 0.5 μg/ml,4 Plaque counts per plate
same,Plaque counts per plate,Rhinovirus type 39; 1.0 μg/ml,0 Plaque counts per plate
same,Plaque counts per plate,Rhinovirus type 39; 2.0 μg/ml,0 Plaque counts per plate
same,MIC,Rhinovirus type 39,1 µg/mL
same,Plaque counts per plate,Rhinovirus type 51; 0.1 μg/ml,211 Plaque counts per plate
same,Plaque counts per plate,Rhinovirus type 51; 0.5 μg/ml,28 Plaque counts per plate
same,Plaque counts per plate,Rhinovirus type 51; 1.0 μg/ml,0 Plaque counts per plate
same,Plaque counts per plate,Rhinovirus type 51; 2.0 μg/ml,0 Plaque counts per plate
same,MIC,Rhinovirus type 51,1 µg/mL
Nc1ncnc2c1ncn2[C@@H]1O[C@H](CO)[C@@H](O)[C@@H]1O [adenine arabinoside],Effectiveness in herpes simplex keratitis,herpes simplex keratitis,effective for the topical treatment of herpes simplex keratitis
Cl.NC12CC3CC(CC(C3)C1)C2 [1-aminoadamantane hydrochloride],Effectiveness against illness caused by influenza A virus,[1],effective for the prophylaxis and symptomatic treatment of illness caused by influenza A virus strains
